Experimental data from ChEMBL document CHEMBL1201862, “PubChem BioAssay data set” (2004).
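Step 1: Grow cells in 96-well plates. Step 2: Expose to compound for 48 hours at 5 concentrations. Step 3: Interpolate endpoints linearly; if unreached, use highest concentration. The concentration for 50% growth inhibition is given as GI50.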 The source made the active and inactive calls. Cut-off read from the data, not from the text of the source: active = GI50 up to about 1.1 µM and inactive = higher.

How the values were obtained:
Experiment in all cases: NCI anticancer screen, dose series, 48 h
[1] = tested on: NCI/ADR-RES
[2] = tested on: 786-0
[3] = tested on: A498
[4] = tested on: A549
[5] = tested on: ACHN
[6] = tested on: CAKI-1
[7] = tested on: CCRF-CEM
[8] = tested on: COLO 205
[9] = tested on: DU-145
[10] = tested on: EKVX
[11] = tested on: HCC 2998
[12] = tested on: HCT-116
[13] = tested on: HCT-15
[14] = tested on: HL-60
[15] = tested on: HOP-62
[16] = tested on: HOP-92
[17] = tested on: HT-29
[18] = tested on: IGROV-1
[19] = tested on: K562
[20] = tested on: KM12
[21] = tested on: LOX IMVI
[22] = tested on: M14
[23] = tested on: MDA-MB-231
[24] = tested on: MDA-MB-435
[25] = tested on: MDA-N
[26] = tested on: MOLT-4
[27] = tested on: Malme-3M
[28] = tested on: NCI-H226
[29] = tested on: NCI-H23
[30] = tested on: NCI-H460
[31] = tested on: NCI-H522
[32] = tested on: OVCAR-3
[33] = tested on: OVCAR-4
[34] = tested on: OVCAR-5
[35] = tested on: OVCAR-8
[36] = tested on: PC-3
[37] = tested on: RXF 393
[38] = tested on: SF-268
[39] = tested on: SF-295
[40] = tested on: SF-539
[41] = tested on: SK-MEL-28
[42] = tested on: SK-MEL-2
[43] = tested on: SK-MEL-5
[44] = tested on: SK-OV-3
[45] = tested on: SN12C
[46] = tested on: SNB-19
[47] = tested on: SNB-75
[48] = tested on: SR
[49] = tested on: SW-620
[50] = tested on: T47D
[51] = tested on: U-251
[52] = tested on: UACC-257
[53] = tested on: UACC-62
[54] = tested on: UO-31
[55] = tested on: MCF7
[56] = tested on: RPMI-8226
[57] = tested on: TK-10

For `COc1ccc(/C=C\c2cc(OC)c(OC)c(OC)c2)cc1OP(=O)(O)O`, which GI50 [1] is on record?
The GI50 was 0.000137 µM (active).

For `O=C(/C=C/c1ccc(O)cc1)c1ccc2c(c1)OCO2`, which GI50 [2] is on record?
The GI50 was 18 µM (inactive).

What about the GI50 [3] of the same molecule?
Its GI50 is 23.8 µM (inactive).

What about the GI50 [4] of the same molecule?
Its GI50 is 19.4 µM (inactive).

And the GI50 [5]?
The GI50 was 21.9 µM (inactive).

What about the GI50 [6] of the same molecule?
The GI50 was 4.56 µM (inactive).

What about the GI50 [7] of the same molecule?
Its GI50 is 1.21 µM (inactive).

And the GI50 [8]?
The GI50 was 14.7 µM (inactive).

And the GI50 [9]?
Its GI50 is 33.4 µM (inactive).

And the GI50 [10]?
The GI50 was 36.2 µM (inactive).

What about the GI50 [11] of the same molecule?
The GI50 was 20.8 µM (inactive).

What about the GI50 [12] of the same molecule?
Its GI50 is 12.5 µM (inactive).

And the GI50 [13]?
Its GI50 is 26.1 µM.

And the GI50 [14]?
The GI50 was 12.1 µM (inactive).

What about the GI50 [15] of the same molecule?
The GI50 was 18.7 µM (inactive).

And the GI50 [16]?
Its GI50 is 22.4 µM (inactive).

What about the GI50 [17] of the same molecule?
Its GI50 is 13.4 µM (inactive).

And the GI50 [18]?
Its GI50 is 15.5 µM (inactive).

What about the GI50 [19] of the same molecule?
Its GI50 is 20.6 µM (inactive).

What about the GI50 [20] of the same molecule?
Its GI50 is 17 µM (inactive).

What about the GI50 [21] of the same molecule?
The GI50 was 18.7 µM (inactive).

What about the GI50 [22] of the same molecule?
Its GI50 is 18.5 µM (inactive).

What about the GI50 [23] of the same molecule?
The GI50 was 17.5 µM (inactive).

And the GI50 [24]?
Its GI50 is 22.8 µM (inactive).

What about the GI50 [25] of the same molecule?
Its GI50 is 24 µM (inactive).

And the GI50 [26]?
Its GI50 is 13.5 µM (inactive).

What about the GI50 [27] of the same molecule?
The GI50 was 31.8 µM (inactive).

And the GI50 [28]?
Its GI50 is 15.5 µM (inactive).

And the GI50 [29]?
Its GI50 is 18.2 µM (inactive).

What about the GI50 [30] of the same molecule?
The GI50 was 26.2 µM (inactive).

What about the GI50 [31] of the same molecule?
Its GI50 is 12.8 µM (inactive).

What about the GI50 [1] of the same molecule?
The GI50 was 25.1 µM (inactive).

And the GI50 [32]?
The GI50 was 16.5 µM (inactive).

And the GI50 [33]?
The GI50 was 21.1 µM (inactive).

And the GI50 [34]?
Its GI50 is 27.4 µM (inactive).

What about the GI50 [35] of the same molecule?
The GI50 was 15.2 µM (inactive).

What about the GI50 [36] of the same molecule?
The GI50 was 24.6 µM (inactive).

And the GI50 [37]?
The GI50 was 19.3 µM (inactive).

And the GI50 [38]?
The GI50 was 23.8 µM (inactive).

What about the GI50 [39] of the same molecule?
Its GI50 is 21.8 µM (inactive).

And the GI50 [40]?
The GI50 was 13.8 µM (inactive).

What about the GI50 [41] of the same molecule?
Its GI50 is 20.9 µM (inactive).

What about the GI50 [42] of the same molecule?
Its GI50 is 27 µM (inactive).

What about the GI50 [43] of the same molecule?
The GI50 was 16 µM (inactive).

What about the GI50 [44] of the same molecule?
The GI50 was 26.1 µM (inactive).

And the GI50 [45]?
Its GI50 is 15.9 µM (inactive).

And the GI50 [46]?
The GI50 was 17.1 µM (inactive).

And the GI50 [47]?
The GI50 was 12.4 µM (inactive).

What about the GI50 [48] of the same molecule?
Its GI50 is 10.2 µM (inactive).

What about the GI50 [49] of the same molecule?
The GI50 was 19.1 µM (inactive).

And the GI50 [50]?
The GI50 was 26.6 µM (inactive).

What about the GI50 [51] of the same molecule?
Its GI50 is 18.4 µM (inactive).

What about the GI50 [52] of the same molecule?
The GI50 was 18.6 µM (inactive).

What about the GI50 [53] of the same molecule?
The GI50 was 18.7 µM (inactive).

And the GI50 [54]?
Its GI50 is 18.1 µM (inactive).

Which results are given for `CC(C)(Oc1ccc(C(=O)c2ccc(Cl)cc2)cc1Cl)C(=O)N1CCN(CCO)CC1`?
GI50 [2]: > 10 µM (inactive); GI50 [4]: > 10 µM (inactive); GI50 [6]: > 10 µM (inactive); GI50 [7]: > 10 µM (inactive); GI50 [8]: > 10 µM (inactive); GI50 [9]: 7.05 µM (inactive); GI50 [10]: > 10 µM (inactive); GI50 [11]: > 10 µM (inactive); GI50 [13]: > 10 µM; GI50 [14]: 3.53 µM (inactive); GI50 [15]: > 10 µM (inactive); GI50 [17]: > 10 µM (inactive); GI50 [18]: > 10 µM (inactive); GI50 [19]: 2.85 µM (inactive); GI50 [20]: > 10 µM (inactive); GI50 [21]: > 10 µM (inactive); GI50 [22]: > 10 µM (inactive); GI50 [55]: 5.12 µM (inactive); GI50 [23]: > 10 µM (inactive); GI50 [25]: > 10 µM (inactive); GI50 [26]: 4.4 µM (inactive); GI50 [27]: 9.42 µM (inactive); GI50 [29]: 4.24 µM (inactive); GI50 [35]: > 10 µM (inactive); GI50 [36]: 3.93 µM (inactive); GI50 [56]: 4.51 µM (inactive); GI50 [37]: 6.27 µM (inactive); GI50 [39]: 8.59 µM (inactive); GI50 [41]: > 10 µM (inactive); GI50 [43]: 3.91 µM (inactive); GI50 [44]: > 10 µM (inactive); GI50 [45]: > 10 µM (inactive); GI50 [47]: > 10 µM (inactive); GI50 [48]: 2.96 µM (inactive); GI50 [49]: > 10 µM (inactive); GI50 [50]: 5.85 µM (inactive); GI50 [57]: > 10 µM (inactive); GI50 [52]: 3.39 µM (inactive); GI50 [53]: > 10 µM (inactive)
